Data: PubChem BioAssay (NCI)
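All cell lines were grown in 96-well plates and treated with compound for 48 hours. TGI: total growth inhibition.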

Columns and labels:
Test in all cases: DTP human tumour cell line panel, 48 h
786-0 renal = test system: 786-0 renal
A498 renal = test system: A498 renal
A549 NSCLC = test system: A549 NSCLC
ACHN renal = test system: ACHN renal
BT-549 breast = test system: BT-549 breast
CAKI-1 renal = test system: CAKI-1 renal
CCRF-CEM leukemia = test system: CCRF-CEM leukemia
COLO 205 colon = test system: COLO 205 colon
DU-145 prostate = test system: DU-145 prostate
EKVX NSCLC = test system: EKVX NSCLC
HCC-2998 colon = test system: HCC-2998 colon
HCT-116 colon = test system: HCT-116 colon
HCT-15 colon = test system: HCT-15 colon
HL-60(TB) leukemia = test system: HL-60(TB) leukemia
HOP-92 NSCLC = test system: HOP-92 NSCLC
IGROV1 ovarian = test system: IGROV1 ovarian
K-562 leukemia = test system: K-562 leukemia
KM12 colon = test system: KM12 colon
LOX IMVI melanoma = test system: LOX IMVI melanoma
M14 melanoma = test system: M14 melanoma
MALME-3M melanoma = test system: MALME-3M melanoma
MCF7 breast = test system: MCF7 breast
MDA-MB-231 breast = test system: MDA-MB-231 breast
MDA-MB-435 = test system: MDA-MB-435
MDA-N = test system: MDA-N
MOLT-4 leukemia = test system: MOLT-4 leukemia
NCI-H226 lung = test system: NCI-H226 lung
NCI-H23 lung = test system: NCI-H23 lung
NCI-H460 lung = test system: NCI-H460 lung
NCI-H522 lung = test system: NCI-H522 lung
NCI/ADR-RES ovarian = test system: NCI/ADR-RES ovarian
OVCAR-3 ovarian = test system: OVCAR-3 ovarian
OVCAR-4 ovarian = test system: OVCAR-4 ovarian
OVCAR-5 ovarian = test system: OVCAR-5 ovarian
OVCAR-8 ovarian = test system: OVCAR-8 ovarian
PC-3 prostate = test system: PC-3 prostate
RPMI-8226 leukemia = test system: RPMI-8226 leukemia
RXF 393 renal = test system: RXF 393 renal
SF-295 CNS = test system: SF-295 CNS
SF-539 CNS = test system: SF-539 CNS
SK-MEL-2 melanoma = test system: SK-MEL-2 melanoma
SK-MEL-28 melanoma = test system: SK-MEL-28 melanoma
SK-MEL-5 melanoma = test system: SK-MEL-5 melanoma
SK-OV-3 ovarian = test system: SK-OV-3 ovarian
SN12C renal = test system: SN12C renal
SNB-19 CNS = test system: SNB-19 CNS
SNB-75 CNS = test system: SNB-75 CNS
SR leukemia = test system: SR leukemia
SW-620 colon = test system: SW-620 colon
TK-10 renal = test system: TK-10 renal
U251 CNS = test system: U251 CNS
UACC-257 melanoma = test system: UACC-257 melanoma
UACC-62 melanoma = test system: UACC-62 melanoma
UO-31 renal = test system: UO-31 renal
HOP-62 NSCLC = test system: HOP-62 NSCLC
HS 578T breast = test system: HS 578T breast
HT29 colon = test system: HT29 colon
SF-268 CNS = test system: SF-268 CNS
T-47D breast = test system: T-47D breast

Measured: TGI

Cc1ccc(-c2c(C#N)c(S)n(NS(=O)(=O)c3ccccc3)c(=O)c2C#N)cc1
97.2 µM: SNB-75 CNS
85.4 µM: IGROV1 ovarian
78.9 µM: MDA-MB-435
69.4 µM: SK-MEL-5 melanoma
69 µM: NCI-H226 lung
41.9 µM: HL-60(TB) leukemia
58.1 µM: SR leukemia
83.5 µM: U251 CNS
31.3 µM: NCI-H460 lung
55.9 µM: OVCAR-8 ovarian
70 µM: SW-620 colon
65.7 µM: TK-10 renal
51.4 µM: UO-31 renal
73.3 µM: BT-549 breast
39.8 µM: NCI/ADR-RES ovarian
77.4 µM: RPMI-8226 leukemia
82 µM: ACHN renal
50.5 µM: HCT-15 colon
58.3 µM: SF-539 CNS
61.1 µM: MOLT-4 leukemia
92.9 µM: CAKI-1 renal
52.3 µM: NCI-H522 lung
77.6 µM: KM12 colon
not listed: HOP-62 NSCLC | HS 578T breast | HT29 colon | SF-268 CNS | T-47D breast
> 100 µM: all other assays above

CNC(=O)CNC(=O)CCC(=O)N(C)C
not listed: OVCAR-4 ovarian | RXF 393 renal | SR leukemia
> 100 µM: all other assays above

CNC1NC(=O)c2ccccc2N1Cc1ccc(F)cc1 (stereo unspecified)
26 µM: UO-31 renal
not listed: SR leukemia
> 100 µM: all other assays above

C=C1C(C[C@@H]2O[C@H]3C[C@H]4O[C@@]5(C[C@@H]6O[C@]7(C[C@H](C)[C@@H]8O[C@@H]9CC(C(O)CO)O[C@@H]9C[C@@H]8O7)C[C@H](C)[C@@H]6O5)C[C@H]4O[C@H]3[C@H](C)[C@H]2O)O[C@@H](CC[C@@H]2O[C@@H](CC[C@@]34CC5O[C@H]6C(O[C@H]7CC[C@H](CC(=O)OC)O[C@@H]7[C@@H]6O3)[C@H]5O4)CC2=C)C[C@H]1C (stereo partly specified)
0.0035 µM: COLO 205 colon
0.579 µM: IGROV1 ovarian
> 0.292 µM: LOX IMVI melanoma
0.000183 µM: MDA-MB-435
0.0248 µM: NCI-H226 lung
0.0125 µM: OVCAR-8 ovarian
0.0772 µM: NCI/ADR-RES ovarian
0.0209 µM: HCT-15 colon
0.00316 µM: BT-549 breast
0.0559 µM: SK-MEL-5 melanoma
> 0.783 µM: A549 NSCLC
0.000124 µM: MDA-N
not listed: 786-0 renal | A498 renal | DU-145 prostate | HCC-2998 colon | HCT-116 colon | KM12 colon | MALME-3M melanoma | MDA-MB-231 breast | NCI-H23 lung | NCI-H460 lung | NCI-H522 lung | RPMI-8226 leukemia | SF-295 CNS | SF-539 CNS | SK-MEL-2 melanoma | HS 578T breast | HT29 colon
> 1 µM: all other assays above

CCOC(=O)/C=C/[C@H](O[Si](c1ccccc1)(c1ccccc1)c1ccccc1)C(C)(C)C
> 29 µM: RPMI-8226 leukemia
> 100 µM: HL-60(TB) leukemia | M14 melanoma
not listed: BT-549 breast | NCI-H460 lung | OVCAR-5 ovarian | SK-MEL-28 melanoma | SR leukemia
> 31.6 µM: all other assays above

CC(C)(C)OC(=O)/C=C/C(=O)O/C=C/[N+](=O)[O-]
not listed: BT-549 breast | HL-60(TB) leukemia | MALME-3M melanoma | MOLT-4 leukemia | NCI/ADR-RES ovarian | OVCAR-4 ovarian | PC-3 prostate | SK-MEL-2 melanoma | SK-MEL-28 melanoma | SNB-19 CNS | T-47D breast
> 100 µM: all other assays above

CCO[C@H]1C[C@@H](c2ccccc2)[C@]2(C)C[C@H](C(=O)OC)ON2O1
not listed: HCC-2998 colon | NCI-H460 lung | SK-OV-3 ovarian | SNB-75 CNS | SR leukemia
> 100 µM: all other assays above
